{"source": "patent US11358959B2", "about": "“Benzothiophene and benzothiazole compounds and methods of use thereof” (Araxes Pharma LLC, priority 2017, dated 2022)"}
{"target": "T1, KRAS G12C 1-169, his-tagged protein, GDP-loaded (Homo sapiens, UniProt P01116, G12C)", "T1 construct": "KRAS G12C 1-169, his-tagged protein, GDP-loaded; His", "T1 sequence (P01116 1-169 isoform P01116-2 G12C)": "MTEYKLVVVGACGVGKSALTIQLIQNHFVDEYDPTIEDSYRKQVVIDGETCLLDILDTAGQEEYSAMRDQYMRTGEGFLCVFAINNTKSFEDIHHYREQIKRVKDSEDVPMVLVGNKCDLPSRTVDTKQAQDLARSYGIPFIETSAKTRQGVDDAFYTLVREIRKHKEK", "test": "Biochemical assay: covalent binding to KRAS G12C by mass spectrometry", "conditions": "covalently bind to KRAS G12C after a thirty minute incubation period", "description": "Test compounds were prepared as 10 mM stock solutions in DMSO (Fisher cat #BP-231-100). KRAS G12C 1-169, his-tagged protein, GDP-loaded was diluted to 2 μM or 0.5 μM in buffer (20 mM Hepes, 150 mM NaCl, 1 mM MgCl2). Compounds were tested for activity as follows:\nCompounds were diluted to 50× final test concentration in DMSO in 96-well storage plates. Compound stock solutions were vortexed before use and observed carefully for any sign of precipitation. Dilutions were as follow: • For 100 μM final compound concentration, compounds were diluted to 5000 μM (5 μL 10 mM compound stock+5 μL DMSO and mixed well by pipetting. • For 30 […] final compound concentration, compounds were diluted to 1500 μM (3 μL 10 mM compound stock+17 μL DMSO) and mixed well by pipetting. • For 10 μM final compound concentration, compounds were diluted to 500 μM (2 μL 10 mM compound stock+38 μL DMSO) and mixed well by pipetting. 49 μL of the stock protein solution was added to each well of a 96-well PCR plate (Fisher cat #1423027). 1 μl of the diluted 50× compounds were added to appropriate wells in the PCR plate using 12-channel pipettor. Reactions were mixed carefully and thoroughly by pipetting up/down with a 200 μL multi-channel pipettor. The plate was sealed well with aluminum plate seal, and stored in drawer at room temperature for 10 minutes, 30 minutes, 2 hours or 24 hours. 5 μL of 2% formic acid (Fisher cat #A117) in de-ionized H2O was then added to each well followed by mixing with a pipette. The plate was then resealed with aluminum seal and stored on dry ice until analyzed as described below.\nThe above described assays were analyzed by mass spectrometry according to one of the following two procedures:\nThe MS instrument is set to positive polarity, 2 GHz resolution, and low mass (1700) mode and allowed to equilibrate for 30 minutes. The instrument is then calibrated, switched to acquisition mode and the appropriate method loaded.\nAfter another 30 minute equilibration time, a blank batch (i.e., buffer) is run to ensure equipment is operating properly. The samples are thawed at 37° C. for 10 minutes, briefly centrifuged, and transfer to the bench top. Wells A1 and H12 are spiked with 1 μL 500 μM internal standard peptide, and the plates centrifuged at 2000×g for 5 minutes. The method is then run and masses of each individual well recorded.\nThe masses (for which integration data is desired) for each well are pasted into the platemap and exported from the analysis. Masses for the internal standards are exported as well. The data at 50 ppm is extracted for the +19 charge state, and identity of well A1 is assigned using the internal standard spike and integrated. Peak data is exported as a TOF list and the above steps are repeated individually, for the +20, 21, 22, 23, 24, and 25 charge states.\nThe masses and peak intensities of KRAS G12C protein species were measured using a Dionex RSLCnano system (Thermo Scientific) connected to a Q Exactive Plus mass spectrometer (Thermo Scientific).\n[…] of sample was each loaded onto a Aeris™ 3.6 μm WIDEPORE C4 200 Å, LC Column 50×2.1 mm column maintained at 40° C. at a flow rate of 600 μL/min with 20% Solvent A (0.1% formic acid in H2O) and 80% Solvent B (0.1% formic acid in acetonitrile). The liquid chromatography conditions were 20% solvent B for 1 minute, 20% to 60% solvent B for 1.5 minutes, 60% to 90% solvent for 0.5 minute, 90% solvent B for 0.2 minute, 90% to 20% solvent B for 0.2 minute, and then equilibrated for 1.6 minute before the following sample injection. The flow rate was maintained at 600 μL/min throughout the sample analysis.\nThe mass spectrometer was operated in profile mode at a resolution of 17500, 5 microscans, using 50 msec max injection time and an AGC target of 1×10^6, and a full mass range from 800-1850 m/z was recorded. The HCD trapping gas was optimized for maximum sensitivity for intact proteins. […]"}
{"smiles": "C=CC(=O)N1CC(c2ccc3nc(-c4cc(O)cc5ccccc45)oc3c2)C1", "note": "[Compound 5, 1-(3-(2-(3-hydroxynaphthalen-1-yl)benzo[d]oxazol-6-yl)azetidin-1-yl)prop-2-en-1-one]", "Binding %": "+++ (+++ indicates binding activity greater than 50%)"}
{"smiles": "C=CC(=O)N1CC(c2ccc3nc(-c4c(C)ccc5[nH]ncc45)sc3c2)C1", "note": "[Compound 3, 1-(3-(2-(5-methyl-1H-indazol-4-yl)benzo[d]thiazol-6-yl)azetidin-1-yl)prop-2-en-1-one]", "Binding %": "+ (+ indicates binding activity up to 10%)"}
{"smiles": "C=CC(=O)N1CC(c2ccc3nc(-c4c(C)ccc5[nH]ncc45)oc3c2)C1", "note": "[Compound 6, 1-(3-(2-(5-methyl-1H-indazol-4-yl)benzo[d]oxazol-6-yl)azetidin-1-yl)prop-2-en-1-one]", "Binding %": "++ (++ indicates binding activity from 10 to 50%)"}
{"smiles": "C=CC(=O)N1CC(c2ccc3cc(-c4cc(O)cc5ccccc45)sc3c2)C1", "note": "[Compound 1, 1-(3-(2-(3-hydroxynaphthalen-1-yl)benzo[b]thiophen-6-yl)azetidin-1-yl)prop-2-en-1-one]", "Binding %": "+++ (+++ indicates binding activity greater than 50%)"}
{"smiles": "C=CC(=O)N1CC(c2ccc3nc(-c4cc(O)cc5ccccc45)sc3c2)C1", "note": "[Compound 4, 1-(3-(2-(3-hydroxynaphthalen-1-yl)benzo[d]thiazol-6-yl)azetidin-1-yl)prop-2-en-1-on]", "Binding %": "+++ (+++ indicates binding activity greater than 50%)"}
{"smiles": "C=CC(=O)N1CC(c2ccc3cc(-c4c(C)ccc5[nH]ncc45)sc3c2)C1", "note": "[Compound 2, 1-(3-(2-(5-methyl-1H-indazol-4-yl)benzo[b]thiophen-6-yl)azetidin-1-yl)prop-2-en-1-one]", "Binding %": "++ (++ indicates binding activity from 10 to 50%)"}
